Measured values: ChEMBL document CHEMBL5036349, “Development of potent dual PDK1/AurA kinase inhibitors for cancer therapy: Lead-optimization, structural insights, and ADME-Tox profile” (Eur J Med Chem, 2021)

Tests used:
[1] = target: Aurora kinase B (Homo sapiens) (UniProt Q96GD4); assay: Inhibition of Aurora B kinase (unknown origin) at 10 uM in presence of ATP incubated for 30 min followed by addition of kinase glo-reagent measured after 20 mins by Luminescence based plate reader assay relative to control; settings: time 50.0 min
[2] = target: Histone deacetylase 9 (Homo sapiens) (UniProt Q9UKV0); assay: Inhibition on human recombinant HDAC9 at 10 uM measured after 20 min by luminescence glo assay
[3] = target: {'v': 'CYP2C9', 'o': 'p', 'q': 'Inhibition of CYP2C9 (unknown origin)'} (Homo sapiens, UniProt P11712); assay: Inhibition of CYP2C9 (unknown origin) at 10 uM pre-incubated for 30 min followed by addition of NADPH and measured after 30 min by Luminescence based plate reader method relative to control; format: ADME; settings: time 60 min
[4] = target: T1, NAD-dependent protein deacetylase sirtuin-7 (Homo sapiens) (UniProt Q9NRC8); assay: Inhibition of human recombinant SIRT7 at 10 uM incubated for 20 mins followed by mixing and measure after 30 mins by Luminescence assay relative to control; settings: time 50.0 min
T1 sequence (whole entry): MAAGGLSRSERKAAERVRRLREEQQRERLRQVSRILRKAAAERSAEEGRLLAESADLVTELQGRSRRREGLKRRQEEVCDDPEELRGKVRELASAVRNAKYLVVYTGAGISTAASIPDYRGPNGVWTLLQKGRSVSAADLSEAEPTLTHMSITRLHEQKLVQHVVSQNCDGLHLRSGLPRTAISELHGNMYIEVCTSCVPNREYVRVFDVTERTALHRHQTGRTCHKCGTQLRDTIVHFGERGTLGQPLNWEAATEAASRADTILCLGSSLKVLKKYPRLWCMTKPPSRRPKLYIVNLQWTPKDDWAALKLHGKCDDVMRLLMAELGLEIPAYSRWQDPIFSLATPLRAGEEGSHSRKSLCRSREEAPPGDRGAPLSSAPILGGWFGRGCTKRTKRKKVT

[5] = system: HEK293; assay: Cytotoxicity against HEK293 cells at 10 uM measured after 24 to 48 hrs by Cell-titer glo assay relative to control; format: cell-based; settings: human, hek293, 10 µM, time 24-48 hrs
[6] = target: T2, Histone deacetylase 8 (Homo sapiens) (UniProt Q9BY41); assay: Inhibition on human recombinant HDAC8 at 10 uM measured after 20 min by luminescence glo assay
T2 sequence (whole entry): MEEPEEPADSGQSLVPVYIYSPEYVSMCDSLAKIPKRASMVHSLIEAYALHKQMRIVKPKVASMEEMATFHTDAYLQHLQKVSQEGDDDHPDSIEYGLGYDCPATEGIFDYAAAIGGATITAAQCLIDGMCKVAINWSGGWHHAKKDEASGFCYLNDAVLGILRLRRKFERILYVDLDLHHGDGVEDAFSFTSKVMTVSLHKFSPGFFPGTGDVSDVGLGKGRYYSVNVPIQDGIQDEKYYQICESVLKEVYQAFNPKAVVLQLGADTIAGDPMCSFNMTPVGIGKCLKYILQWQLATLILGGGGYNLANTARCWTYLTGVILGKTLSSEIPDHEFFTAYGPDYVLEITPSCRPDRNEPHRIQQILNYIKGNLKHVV

[7] = target: {'v': 'CYP2C19', 'o': 'p', 'q': 'Inhibition of CYP2C19 (unknown origin)'} (Homo sapiens, UniProt P33261); assay: Inhibition of CYP2C19 (unknown origin) at 10 uM pre-incubated for 30 min followed by addition of NADPH and measured after 30 min by Luminescence based plate reader method relative to control; format: ADME; settings: time 60 min
[8] = target: {'v': 'CYP2D6', 'o': 'p', 'q': 'Inhibition of CYP2D6 (unknown origin)'} (Homo sapiens, UniProt P10635); assay: Inhibition of CYP2D6 (unknown origin) at 10 uM pre-incubated for 30 min followed by addition of NADPH and measured after 30 min by Luminescence based plate reader method relative to control; format: ADME; settings: time 60 min
[9] = Cytotoxicity against hTERT cells at 10 uM measured after 24 to 48 hrs by Cell-titer glo assay relative to control; format: cell-based; settings: human, time 24-48 hrs
[10] = target: T3, {'v': 'CYP1A2', 'o': 'p', 'q': 'Inhibition of CYP1A2 (unknown origin)'} (Homo sapiens, UniProt P05177); assay: Inhibition of CYP1A2 (unknown origin) at 10 uM pre-incubated for 30 min followed by addition of NADPH and measured after 30 min by Luminescence based plate reader method relative to control; format: ADME; settings: time 60 min
T3 sequence (P05177 whole entry): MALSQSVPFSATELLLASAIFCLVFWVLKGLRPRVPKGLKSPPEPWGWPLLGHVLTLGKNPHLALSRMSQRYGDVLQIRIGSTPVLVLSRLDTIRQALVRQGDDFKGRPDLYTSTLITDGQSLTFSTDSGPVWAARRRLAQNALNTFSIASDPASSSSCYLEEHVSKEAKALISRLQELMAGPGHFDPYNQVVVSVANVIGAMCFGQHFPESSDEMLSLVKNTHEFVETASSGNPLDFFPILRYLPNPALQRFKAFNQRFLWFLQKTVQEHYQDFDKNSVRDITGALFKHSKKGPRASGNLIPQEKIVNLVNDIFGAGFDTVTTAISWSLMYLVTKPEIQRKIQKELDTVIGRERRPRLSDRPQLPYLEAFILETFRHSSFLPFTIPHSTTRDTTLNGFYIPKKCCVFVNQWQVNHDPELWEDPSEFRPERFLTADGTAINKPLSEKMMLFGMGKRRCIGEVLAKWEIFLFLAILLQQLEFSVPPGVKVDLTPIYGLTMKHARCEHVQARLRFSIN

[11] = target: {'v': 'CYP3A4', 'o': 'p', 'q': 'Inhibition of CYP3A4 (unknown origin)'} (Homo sapiens, UniProt P08684); assay: Inhibition of CYP3A4 (unknown origin) at 10 uM pre-incubated for 30 min followed by addition of NADPH and measured after 30 min by Luminescence based plate reader method relative to control; format: ADME; settings: time 60 min
[12] = target: 3',5'-cyclic-AMP phosphodiesterase 4C (Homo sapiens) (UniProt Q08493); assay: Inhibition of PDE4C1 (unknown origin) at 10 uM incubated for 60 mins followed by addition of binding agent and measured after 20 mins by Fluorescence Polarization assay relative to control; settings: time 80.0 min
Chain of 3',5'-cyclic-AMP phosphodiesterase 4C (Homo sapiens) (Q08493 whole entry): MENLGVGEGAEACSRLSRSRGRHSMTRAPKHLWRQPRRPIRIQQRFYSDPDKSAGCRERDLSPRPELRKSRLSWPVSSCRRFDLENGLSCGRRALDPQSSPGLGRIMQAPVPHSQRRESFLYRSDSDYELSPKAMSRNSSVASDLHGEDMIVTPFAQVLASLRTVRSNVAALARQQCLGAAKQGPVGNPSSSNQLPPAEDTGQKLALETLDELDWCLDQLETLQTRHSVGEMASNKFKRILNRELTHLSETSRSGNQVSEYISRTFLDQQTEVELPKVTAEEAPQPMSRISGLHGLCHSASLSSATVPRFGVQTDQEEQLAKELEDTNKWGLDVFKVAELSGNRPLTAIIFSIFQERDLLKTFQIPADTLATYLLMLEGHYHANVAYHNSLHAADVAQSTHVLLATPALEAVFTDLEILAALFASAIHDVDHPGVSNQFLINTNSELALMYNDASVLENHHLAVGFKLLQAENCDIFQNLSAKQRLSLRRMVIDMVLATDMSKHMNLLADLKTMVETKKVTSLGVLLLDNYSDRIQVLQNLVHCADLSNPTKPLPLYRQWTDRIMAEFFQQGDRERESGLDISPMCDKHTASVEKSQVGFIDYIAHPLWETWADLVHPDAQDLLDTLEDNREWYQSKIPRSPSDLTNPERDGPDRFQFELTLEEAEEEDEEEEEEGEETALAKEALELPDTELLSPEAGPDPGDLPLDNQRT

Chain of {'v': 'CYP2D6', 'o': 'p', 'q': 'Inhibition of CYP2D6 (unknown origin)'} (P10635 whole entry): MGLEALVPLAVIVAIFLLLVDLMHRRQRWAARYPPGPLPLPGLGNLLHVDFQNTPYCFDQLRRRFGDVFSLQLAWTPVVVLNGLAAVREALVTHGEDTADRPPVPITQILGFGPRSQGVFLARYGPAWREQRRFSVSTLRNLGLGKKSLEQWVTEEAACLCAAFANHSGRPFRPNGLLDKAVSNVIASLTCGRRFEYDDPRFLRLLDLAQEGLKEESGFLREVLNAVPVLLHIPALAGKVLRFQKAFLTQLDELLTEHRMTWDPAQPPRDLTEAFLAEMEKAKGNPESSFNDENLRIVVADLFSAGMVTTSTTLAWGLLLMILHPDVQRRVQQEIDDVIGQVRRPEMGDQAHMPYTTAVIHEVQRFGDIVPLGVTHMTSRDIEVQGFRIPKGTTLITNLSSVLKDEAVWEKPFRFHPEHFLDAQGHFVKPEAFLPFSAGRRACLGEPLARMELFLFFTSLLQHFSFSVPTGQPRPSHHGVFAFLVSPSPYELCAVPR
Chain of {'v': 'CYP2C9', 'o': 'p', 'q': 'Inhibition of CYP2C9 (unknown origin)'} (P11712 whole entry): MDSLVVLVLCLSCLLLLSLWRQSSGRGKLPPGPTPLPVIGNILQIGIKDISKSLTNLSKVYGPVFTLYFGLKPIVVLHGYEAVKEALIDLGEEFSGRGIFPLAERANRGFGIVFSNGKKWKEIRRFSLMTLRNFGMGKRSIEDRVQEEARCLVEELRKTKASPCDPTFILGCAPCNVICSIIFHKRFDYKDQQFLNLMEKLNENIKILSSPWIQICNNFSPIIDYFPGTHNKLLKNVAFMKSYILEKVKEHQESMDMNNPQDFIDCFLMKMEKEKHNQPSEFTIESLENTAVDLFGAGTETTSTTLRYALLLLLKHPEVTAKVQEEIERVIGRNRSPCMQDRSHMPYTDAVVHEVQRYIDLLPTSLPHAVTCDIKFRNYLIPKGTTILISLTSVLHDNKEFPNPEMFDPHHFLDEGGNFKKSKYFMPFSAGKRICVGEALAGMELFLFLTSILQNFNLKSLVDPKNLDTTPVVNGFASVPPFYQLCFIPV
Chain of {'v': 'CYP3A4', 'o': 'p', 'q': 'Inhibition of CYP3A4 (unknown origin)'} (P08684 whole entry): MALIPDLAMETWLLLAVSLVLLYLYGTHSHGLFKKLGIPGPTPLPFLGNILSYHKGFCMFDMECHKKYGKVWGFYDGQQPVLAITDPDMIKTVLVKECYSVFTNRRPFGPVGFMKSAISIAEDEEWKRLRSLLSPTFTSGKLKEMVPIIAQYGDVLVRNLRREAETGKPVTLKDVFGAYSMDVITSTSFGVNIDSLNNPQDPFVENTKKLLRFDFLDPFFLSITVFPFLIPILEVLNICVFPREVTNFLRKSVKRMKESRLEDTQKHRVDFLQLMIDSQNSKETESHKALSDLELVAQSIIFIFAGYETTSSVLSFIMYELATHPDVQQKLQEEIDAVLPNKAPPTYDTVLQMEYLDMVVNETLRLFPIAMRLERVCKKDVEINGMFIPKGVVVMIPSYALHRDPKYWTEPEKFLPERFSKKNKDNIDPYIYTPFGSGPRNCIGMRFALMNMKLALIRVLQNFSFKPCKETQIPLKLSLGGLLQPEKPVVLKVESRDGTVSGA
Chain of {'v': 'CYP2C19', 'o': 'p', 'q': 'Inhibition of CYP2C19 (unknown origin)'} (P33261 whole entry): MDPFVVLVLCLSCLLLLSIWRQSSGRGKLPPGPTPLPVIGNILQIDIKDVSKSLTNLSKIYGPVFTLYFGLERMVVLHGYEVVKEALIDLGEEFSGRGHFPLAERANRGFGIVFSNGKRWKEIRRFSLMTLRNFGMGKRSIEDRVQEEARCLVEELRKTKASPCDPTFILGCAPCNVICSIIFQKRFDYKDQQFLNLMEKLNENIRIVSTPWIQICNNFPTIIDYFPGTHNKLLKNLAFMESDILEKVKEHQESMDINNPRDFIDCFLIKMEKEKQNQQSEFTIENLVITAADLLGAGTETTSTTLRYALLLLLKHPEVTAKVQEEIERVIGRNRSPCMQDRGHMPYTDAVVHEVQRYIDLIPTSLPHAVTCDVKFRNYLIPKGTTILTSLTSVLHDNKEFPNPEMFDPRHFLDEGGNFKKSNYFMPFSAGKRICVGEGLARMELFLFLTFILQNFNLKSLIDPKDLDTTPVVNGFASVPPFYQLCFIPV
Chain of Aurora kinase B (Homo sapiens) (Q96GD4 whole entry): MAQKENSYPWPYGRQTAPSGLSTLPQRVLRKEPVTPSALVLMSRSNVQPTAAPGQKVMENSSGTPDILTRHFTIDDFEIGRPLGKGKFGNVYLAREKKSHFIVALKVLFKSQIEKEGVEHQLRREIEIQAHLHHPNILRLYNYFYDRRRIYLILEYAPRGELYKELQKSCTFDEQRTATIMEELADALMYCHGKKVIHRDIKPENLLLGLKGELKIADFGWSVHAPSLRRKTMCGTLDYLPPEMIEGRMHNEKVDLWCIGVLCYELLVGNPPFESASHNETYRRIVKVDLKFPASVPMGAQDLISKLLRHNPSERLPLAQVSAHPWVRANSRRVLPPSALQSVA
Chain of Histone deacetylase 9 (Homo sapiens) (Q9UKV0 whole entry): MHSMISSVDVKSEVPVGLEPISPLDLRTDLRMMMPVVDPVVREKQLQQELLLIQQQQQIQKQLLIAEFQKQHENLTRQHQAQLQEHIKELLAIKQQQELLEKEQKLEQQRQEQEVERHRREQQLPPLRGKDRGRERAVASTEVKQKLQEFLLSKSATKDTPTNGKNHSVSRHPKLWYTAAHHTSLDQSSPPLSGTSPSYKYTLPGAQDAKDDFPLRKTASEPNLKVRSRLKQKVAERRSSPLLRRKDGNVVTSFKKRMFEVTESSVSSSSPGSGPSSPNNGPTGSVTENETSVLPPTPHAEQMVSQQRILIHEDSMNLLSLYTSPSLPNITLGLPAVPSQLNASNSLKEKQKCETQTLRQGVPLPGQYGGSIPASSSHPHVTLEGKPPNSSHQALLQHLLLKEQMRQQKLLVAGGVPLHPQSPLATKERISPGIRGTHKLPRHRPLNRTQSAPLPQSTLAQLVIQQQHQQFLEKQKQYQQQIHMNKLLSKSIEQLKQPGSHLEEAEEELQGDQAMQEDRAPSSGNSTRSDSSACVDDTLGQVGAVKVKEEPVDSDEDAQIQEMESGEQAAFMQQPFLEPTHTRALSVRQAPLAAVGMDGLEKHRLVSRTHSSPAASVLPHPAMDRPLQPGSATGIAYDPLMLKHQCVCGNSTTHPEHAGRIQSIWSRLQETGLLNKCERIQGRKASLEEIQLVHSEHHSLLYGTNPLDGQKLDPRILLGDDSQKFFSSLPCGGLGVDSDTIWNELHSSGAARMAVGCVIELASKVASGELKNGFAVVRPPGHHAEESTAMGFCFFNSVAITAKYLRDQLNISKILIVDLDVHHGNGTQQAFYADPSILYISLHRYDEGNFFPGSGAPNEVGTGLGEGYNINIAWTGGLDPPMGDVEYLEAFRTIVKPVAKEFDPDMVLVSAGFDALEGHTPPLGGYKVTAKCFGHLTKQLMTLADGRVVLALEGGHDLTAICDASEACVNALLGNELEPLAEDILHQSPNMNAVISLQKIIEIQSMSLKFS

SMILES	inhibition [1] [%]	inhibition [2] [%]	inhibition at 0.5 h, 10 µM [3] [%]	inhibition [4] [%]	Activity [5] [%]	inhibition [6] [%]	inhibition at 0.5 h, 10 µM [7] [%]	inhibition at 0.5 h, 10 µM [8] [%]	Activity [9] [%]	inhibition at 0.5 h, 10 µM [10] [%]	inhibition at 0.5 h, 10 µM [11] [%]	inhibition [12] [%]
O=C(CCNC(=O)c1cccn(Cc2ccc(F)c(F)c2)c1=O)Nc1ccc2c(c1)/C(=C/c1cnc[nH]1)C(=O)N2	< 20	< 30	> 90	< 30	< 25	< 30	> 90	> 90	< 25	> 90	> 90	< 30
Cc1c(Br)cc(C(=O)N[C@@H](C(=O)Nc2ccc3c(c2)/C(=C/c2cnc[nH]2)C(=O)N3)c2ccccc2)c(=O)n1Cc1ccc(F)c(F)c1	< 20	< 30	< 45	< 30	< 25	< 30	< 45	< 45	< 25	< 45	< 45	< 30
O=C1Nc2ccc(NC(=O)[C@H](NC(=O)c3cccn(Cc4ccc(F)c(F)c4)c3=O)c3ccccc3)cc2/C1=C/c1cnc[nH]1 (stereo in doubt)	< 20	< 30	–	< 30	< 25	< 30	–	–	< 25	–	–	< 30
Cc1ccc(C(=O)NCC(=O)Nc2ccc3c(c2)/C(=C/c2cnc[nH]2)C(=O)N3)c(=O)n1Cc1ccc(F)c(F)c1	< 20	< 30	> 90	< 30	< 25	< 30	> 90	> 90	< 25	> 90	> 90	< 30
